Tests used:
cancer cells = assay: Cancer cell viability after 72 hours HGF only pretreatment followed by 72 hour combination treatment; assay type: cell-based; conditions: 72 hours HGF exposure followed by 72 hour combination treatment; FIG. 8
Experimental: FIG. 8 depicts a table showing cancer cell viability after 72 hours of HGF only pretreatment, followed by 72 hour combination treatment (COMBO=30 μM paclitaxel, 250 μs/mL oseltamivir phosphate, and 2.5 mM aspirin). HI1=HGF 0.5 ng/ml; HI2=HGF 1 ng/ml; HI3=HGF 5 ng/ml.
(§1) In the following experiments various concentrations of hepatocyte growth factor (HGF) and Interleukin 6 (IL-6), used singly and together, were used to sensitize cancer cell lines to cytotoxic chemotherapy. In these experiments a combination anti-cancer treatment of paclitaxel with aspirin and oseltamivir phosphate (OP) were used. Cell lines treated with the combination treatment (COMBO) alone were compared with those treated with the combination treatment after exposure to cytokines.
Thus, exposure to this particular cytokine, for longer than 48 hours can increase the likelihood that the cancer cell population is transitioning over to a more stem cell enriched phenotype, rendering the cells less sensitive to the effects of cytotoxic therapies. Other cytokines such as HGF, IL-6, PGE-2, MCP-1, MMP-9, TGF-beta, PDGF-BB, and PGF, the up-regulation of which is associated with stem cell enrichment should also be administered in this time limited manner to avoid a stem cell enriched phenotype that is more resistant to the chemotherapy treatment. […]

SW 620 cell lines = assay: Cancer stem cells remaining after cytokine exposure and 24 hours exposure to CPT-11 (Irinotecan); assay type: cell-based, human; conditions: FIG. 4
Experimental: FIG. 4 depicts a table showing percentage of Cancer Stem Cells remaining after exposure to various cytokines and 24 hours exposure to CPT-11 (Irinotecan). The present inventor then performed experiments to determine if exposure to HGF would improve the effectiveness of chemotherapy treatment, based on a prediction that this stimulus, by fostering differentiation of the stem cell subpopulation, would render these cells more susceptible to chemotherapy. […] Furthermore, exposure to HGF alone for 24 hours at a concentration of 10 ng per ml followed by treatment with CPT-11 in SW 620 cell lines was able to kill cancer stem cells effectively as well, given that there were no remaining cancer stem cells after this sensitization (FIG. 4 0% CD44+/CD133−).

PANC1 = assay: Cancer cell viability after 48 hours HGF only pretreatment followed by 72 hour combination treatment; assay type: cell-based, human; conditions: 48 hours HGF exposure followed by 72 hour combination treatment; FIG. 7
Experimental: FIG. 7 depicts tables showing cancer cell viability after 48 hours of HGF only pretreatment, followed by 72 hour combination treatment. HI1=HGF 0.5 ng/ml; H12=HGF 1 ng/ml; HI3=HGF 5 ng/ml. A) PANC1 48 hour HGF exposure followed by 72 hour combination treatment (COMBO=30 paclitaxel, 250 μg/mL oseltamivir phosphate, and 2.5 mM aspirin). B) PANC1 48 hour HGF exposure followed by 72 hour combination treatment (COMBO=50 μM paclitaxel, 250 μg/mL oseltamivir phosphate, and 2.5 mM aspirin).
as §1
In FIG. 7, exposing human pancreatic cancer cell lines (PANC-1) cells to HGF for 48 hours at various concentrations sensitized cancer cells to subsequent combination treatment. […] P-value in FIG. 7 was calculated based on comparison between Combination Treatment vs. Pretreatment Followed by Combination Treatment.

[1] = system: SW620 colorectal cancer cell line; assay: Flow cytometry of EpCAM positive cells and cancer stem cell (CD44+CD133-) subpopulation after incubation with cytokines; assay type: cell-based, human; conditions: for % Gated, R4 (CD44FITC, CD133 PE) / % Total, R4 (CD44FITC, CD133 PE): population R4 & R14 & R2 & R1; for % Gated, R5 (CD44FITC, CD133 PE) / % Total, R5 (CD44FITC, CD133 PE): population R5 & R14 & R2 & R1; for % Gated, R6 (CD44FITC, CD133 PE) / % Total, R6 (CD44FITC, CD133 PE): population R6 & R14 & R2 & R1; for % Gated, R7 Cancer Stem Cell (CSC) (CD44+CD133-) / % Total, R7 Cancer Stem Cell (CSC) (CD44+CD133-): population R7 & R14 & R2 & R1; for % Gated, R8 (CD44FITC, EpCAMefluor710) / % Total, R8 (CD44FITC, EpCAMefluor710): population R8 & R14 & R2 & R1; for % Gated, R9 EpCAM positive Cells (CD44FITC, EpCAMefluor710) / % Total, R9 EpCAM positive Cells (CD44FITC, EpCAMefluor710): population R9 & R14 & R2 & R1; for % Gated, R10 EpCAM positive Cells (CD44FITC, EpCAMefluor710) / % Total, R10 EpCAM positive Cells (CD44FITC, EpCAMefluor710): population R10 & R14 & R2 & R1; for % Gated, R11 (CD44FITC, EpCAMefluor710) / % Total, R11 (CD44FITC, EpCAMefluor710): population R11 & R14 & R2 & R1; for putative stem cell population (CD44+/CD133-): SW620; for percentage of cancer stem cells: human cancer cell line, single agent at 1000 pg/ml
Experimental: This number returned to near baseline 21% at 48 hours. […] This change was transient, occurring within 24 hours and rapidly returning to baseline.
The data from the scatter plots of FIGS. 1A-1H, 2A-2H, and 3A-3H are reproduced below in Tables 1-3.
Based on the above data of potentiating the effectiveness of chemotherapy by exposing cancer cells to specific cytokines such as HGF and or Il-6 within a time limited fashion, the mechanism behind this ability to sensitize cancer cells may not simply be triggering cellular proliferation. Specific cytokine exposures can transiently cause a cancer cell population to differentiate away from a more stem cell enriched, mesenchymal phenotype towards a more differentiated, epithelial cell population more sensitive to the effects of anti-cancer therapies (see Tables 1-3).
In particular, exposure to a control population of SW620 colorectal cancer cell line to HGF at a concentration of 10 ng per ml for 24 hours caused the control putative stem cell population (CD44+/CD133−) to drop from 33% at baseline (see Table 1, R7 region, CD 44 positive/CD133 negative) to 1% (see Table 2, R7, region CD 44 positive/CD133 negative). This drop was transient, as exposure to the same cell line for 48 hours of HGF at 10 ng per ml transitioned the phenotypic distribution back towards a stem cell enriched phenotype with 23% putative stem cells (see Table 3, R7 region, CD 44 positive/CD133 negative).

[2] = after exposure to HGF, then chemotherapy (CPT-11)

HGF: Hepatocyte Growth Factor, cytokine
sensitization of cancer cells to the combination treatment (cancer cells): made the combination treatment less effective
remaining cancer stem cells CD44+/CD133- (SW 620 cell lines; HGF alone 24 hours at 10 ng per ml followed by CPT-11, SW 620): 0%
cancer stem cells killed (SW 620 cell lines; [2]): 100%
viable cancer stem cells remaining (SW 620 cell lines; [2]): no viable cancer stem cells remaining
reduction in cell viability (PANC1): 87%
% Gated, R4 (CD44FITC, CD133 PE) ([1]; 0 hour incubation): 48.6%
% Total, R4 (CD44FITC, CD133 PE) ([1]; 0 hour incubation): 46.6%
% Gated, R5 (CD44FITC, CD133 PE) ([1]; 0 hour incubation): 3.61%
% Total, R5 (CD44FITC, CD133 PE) ([1]; 0 hour incubation): 3.45%
% Gated, R6 (CD44FITC, CD133 PE) ([1]; 0 hour incubation): 14.2%
% Total, R6 (CD44FITC, CD133 PE) ([1]; 0 hour incubation): 13.6%
% Gated, R7 Cancer Stem Cell (CSC) (CD44+CD133-) ([1]; 0 hour incubation): 33.8%
% Total, R7 Cancer Stem Cell (CSC) (CD44+CD133-) ([1]; 0 hour incubation): 32.3%
% Gated, R8 (CD44FITC, EpCAMefluor710) ([1]; 0 hour incubation): 5.28%
% Total, R8 (CD44FITC, EpCAMefluor710) ([1]; 0 hour incubation): 5.06%
% Gated, R9 EpCAM positive Cells (CD44FITC, EpCAMefluor710) ([1]; 0 hour incubation): 53.1%
% Total, R9 EpCAM positive Cells (CD44FITC, EpCAMefluor710) ([1]; 0 hour incubation): 50.9%
% Gated, R10 EpCAM positive Cells (CD44FITC, EpCAMefluor710) ([1]; 0 hour incubation): 39%
% Total, R10 EpCAM positive Cells (CD44FITC, EpCAMefluor710) ([1]; 0 hour incubation): 37.4%
% Gated, R11 (CD44FITC, EpCAMefluor710) ([1]; 0 hour incubation): 2.16%
% Total, R11 (CD44FITC, EpCAMefluor710) ([1]; 0 hour incubation): 2.07%
% Gated, R4 (CD44FITC, CD133 PE) ([1]; 24 h incubation): 98.6%
% Total, R4 (CD44FITC, CD133 PE) ([1]; 24 h incubation): 84.7%
% Gated, R5 (CD44FITC, CD133 PE) ([1]; 24 h incubation): 0%
% Total, R5 (CD44FITC, CD133 PE) ([1]; 24 h incubation): 0%
% Gated, R6 (CD44FITC, CD133 PE) ([1]; 24 h incubation): 0.07%
% Total, R6 (CD44FITC, CD133 PE) ([1]; 24 h incubation): 0.06%
% Gated, R7 Cancer Stem Cell (CSC) (CD44+CD133-) ([1]; 24 h incubation): 1.01%
% Total, R7 Cancer Stem Cell (CSC) (CD44+CD133-) ([1]; 24 h incubation): 0.87%
% Gated, R8 (CD44FITC, EpCAMefluor710) ([1]; 24 h incubation): 99.8%
% Total, R8 (CD44FITC, EpCAMefluor710) ([1]; 24 h incubation): 85.7%
% Gated, R9 EpCAM positive Cells (CD44FITC, EpCAMefluor710) ([1]; 24 h incubation): 0.02%
% Total, R9 EpCAM positive Cells (CD44FITC, EpCAMefluor710) ([1]; 24 h incubation): 0.02%
% Gated, R10 EpCAM positive Cells (CD44FITC, EpCAMefluor710) ([1]; 24 h incubation): 0.02%
% Total, R10 EpCAM positive Cells (CD44FITC, EpCAMefluor710) ([1]; 24 h incubation): 0.02%
% Gated, R11 (CD44FITC, EpCAMefluor710) ([1]; 24 h incubation): 0.2%
% Total, R11 (CD44FITC, EpCAMefluor710) ([1]; 24 h incubation): 0.17%
% Gated, R4 (CD44FITC, CD133 PE) ([1]; 48 h incubation): 38%
% Total, R4 (CD44FITC, CD133 PE) ([1]; 48 h incubation): 34.2%
% Gated, R5 (CD44FITC, CD133 PE) ([1]; 48 h incubation): 7.48%
% Total, R5 (CD44FITC, CD133 PE) ([1]; 48 h incubation): 6.73%
% Gated, R6 (CD44FITC, CD133 PE) ([1]; 48 h incubation): 31.3%
% Total, R6 (CD44FITC, CD133 PE) ([1]; 48 h incubation): 28.2%
% Gated, R7 Cancer Stem Cell (CSC) (CD44+CD133-) ([1]; 48 h incubation): 23.9%
% Total, R7 Cancer Stem Cell (CSC) (CD44+CD133-) ([1]; 48 h incubation): 21.5%
% Gated, R8 (CD44FITC, EpCAMefluor710) ([1]; 48 h incubation): 20%
% Total, R8 (CD44FITC, EpCAMefluor710) ([1]; 48 h incubation): 18%
% Gated, R9 EpCAM positive Cells (CD44FITC, EpCAMefluor710) ([1]; 48 h incubation): 34.7%
% Total, R9 EpCAM positive Cells (CD44FITC, EpCAMefluor710) ([1]; 48 h incubation): 31.2%
% Gated, R10 EpCAM positive Cells (CD44FITC, EpCAMefluor710) ([1]; 48 h incubation): 31.8%
% Total, R10 EpCAM positive Cells (CD44FITC, EpCAMefluor710) ([1]; 48 h incubation): 28.7%
% Gated, R11 (CD44FITC, EpCAMefluor710) ([1]; 48 h incubation): 14.4%
% Total, R11 (CD44FITC, EpCAMefluor710) ([1]; 48 h incubation): 12.9%
putative stem cell population (CD44+/CD133-) ([1]; 10 ng per ml for 24 hours (Table 2, R7 region)): 1%
putative stem cell population (CD44+/CD133-) ([1]; 10 ng per ml for 48 hours (Table 3, R7 region)): 23%
putative stem cell population (CD44+/CD133-) ([1]; at baseline (Table 1, R7 region)): 33%
percentage of cancer stem cells ([1]; at 24 hours): less than one percent
percentage of cancer stem cells ([1]; at 48 hours): 21%
percentage of cancer stem cells ([1]; prior to exposure): approximately 30%

Source: patent publication US20190209650A1, “METHOD TO IMPROVE THE EFFECTIVENESS OF ANTI-CANCER THERAPIES BY EXPOSING CANCER CELLS TO AN INFLAMMATORY STIMULUS PRIOR TO TREATMENT” (priority 2016, published 2019)
